# Results: patent publication US11590092B2, “Skin probiotic” (The Regents of the University of California, priority 2014, dated 2023)
# Entries after “also recorded” stand apart in the source; their conditions may differ.
# Assays:
# USA300 [1] = experiment: In vivo skin wound infection with USA300; parameters: species or system ICR mice; conditions: for USA300 colonization / growth in the skin lesions: vs controls
# Description: ICR mice (2-3-month-old female) were anesthetized by isoflurane. In each experiment, there were five mice per group. A wound 5 mm in length was made on the dorsal skin after shaving with electrical clippers. Once the skin wound was created, 5 μl of propionic acid (100 mM), PBS (pH 7.1) or PBS (pH 3.5) was applied topically to the wounded areas. The wounds were left uncovered throughout the experimental period. For bacterial infection, USA300 (2×10^6 CFU in PBS) was applied topically to the wounded areas 10 min after application of propionic acid or PBS. For the measurement of the extent of wound closure, a transparent parafilm was put on the top of the wounded skin. The wound area was marked on the parafilm by drawing an area which covered the whole skin wound. The lesion size was measured daily for 8 days was calculated using the ImageJ software [National Institutes of Health (NIH), Bethesda, Md., USA] and expressed as mm^2. Student's t-test was used to determine the significance of the differences between groups of the PBS (pH 7.1)- and propionic acid-treated mice as well as the PBS (pH 7.1)- and PBS (pH 3.5)-treated mice. Data represent the mean±SD from three independent experiments. All experiments using mice were conducted in a Biosafety Level 2 (BSL-2) facility and with accordance to institutional guidelines for animal experiments.
# The USA300-infected skins treated with propionic acid and its controls were cross-sectioned, stained with hematoxylin and eosin (H&E) (Sigma, St. Louis, Mo.), and viewed on a Bx51 research microscope (Olympus, Melville, N.Y., USA). To determine the bacterial number in infected skin, the whole area of infected skin was excised 72 h after bacterial application. The excised skin was homogenized in 200 μl of sterile PBS with a hand tissue grinder. Bacterial CFUs in the skin were enumerated by plating serial dilutions (1:10^1-1:10^6) of the homogenate on a TSB agar plate. The plate was incubated for 24 h at 37° C. to count colonies.
# ICR mice (2-3 month-old females; Harlan Labs, Placentia, Calif., USA) were anesthetized by isoflurane. A 5 mm wounds were made on the dorsal skin following shaving with electrical clippers. Following skin wounding, 5 μl of filter sterilized media obtained by incubating P. acnes (10^5 CFU/ml in 10 ml) with/without glycerol for 17 days or 5 μl of media with glycerol (control) were applied and to the wounded areas. To determine if propionic acid can prevent or mitigate the MRSA infection, 5 μl of 100 mM propionic acid was applied to the wounded areas. Application of PBS/pH (pH 3.5, corresponding to pH for 100 mM propionic acid) or PBS (pH 7.1) to the wounded areas served as controls. The wounds were left uncovered throughout the experimental period. USA300 (2×10^6 CFU in 5 μl PBS) was then applied to the wounds 10 min after application of various media, propionic acid or PBS controls. To measure the extent of wound closure, a transparent parafilm was placed over the wounded skin and the area was marked by outlining the area of the wound. The lesion size (mm^2) was measured daily for 8 days then calculated with ImageJ software (NIH, Bethesda, Md., USA). Five mice per group per experiments were used. A Student's t-test was used to determine the significance of the differences between groups. Data represent the mean±SD from three independent experiments. All experiments using mice were conducted in a biosafety level 2 (BSL-2) facility and in accordance with institutional guidelines for animal experiments. To determine the bacterial counts in infected skin, the infected skin was excised 72 h following bacterial application. The excised skin was weighted and homogenized in 200 μl of sterile PBS with a tissue grinder. Bacterial CFUs in the skin were enumerated by plating serial dilutions (1:10^1-1:10^6) of the homogenate on a TSB agar plate. The plate was incubated for 24 h at 37° C. to count colonies. […]
# USA300 [2] = experiment: Measurement of intracellular pH of USA300 (cFSE probe); assay type: cell-based, Staphylococcus aureus; conditions: 25 mM propionic acid, vs PBS
# Description: Measurement of intracellular pH. […] A drop in relative fluorescence indicated the decrease in intracellular pH. […] The fluorescence of the bacteria-free supernatant was measured and deducted from values for the treated suspensions.
# Fluorescence was measured for 5 min every min using an excitation wavelength of 490 nm and an emission wavelength of 520 nm. A reduction in relative fluorescence reflected a decrease in intracellular pH. Fluorescence of bacteria-free supernatant obtained by centrifugation at 5,000×g for 5 min after the 5-min assay was measured to correct for background fluorescence. Calibration curves were obtained by incubation of untreated, cFSE-loaded bacteria in buffer containing 50 mM glycine, 50 mM citric acid, 50 mM Na2HPO4.2H2O and 50 mM KCl adjusted to various pH values from 4-10. 1 μM valinomycin and nigericin (Sigma) were added to equilibrate the intracellular and extracellular pH.
# E. coli [3] = experiment: Minimal bactericidal concentration test against E. coli; assay type: cell-based, Escherichia coli; conditions: MBC test
# Description: (§1) To determine the minimal bactericidal concentration (MBC) and minimal fungicidal concentration (MFC) of propionic acid, microorganisms (10^6 colony forming units (cfu)/ml) were incubated overnight in media with propionic acid (1.25-2,000 mM) in a 96-well microplate (100 μl per well). The control only received PBS. After incubation, the microorganisms were diluted 1:10-1:10^6 into PBS. The dilutions (5 μl) were spotted onto agar media to count cfu; MBC/MFC were determined at 99.9% killing level. To determine the effect of pH on growth of S. aureus USA300, the bacterium was incubated in TSB at pH 5.8 and 6.8, and TSB with 25 mM propionic acid at pH 5.8 and 6.8 (buffered with 4-(2-hydroxyethyl)-1-piperazineethanesulfonic acid (HEPES)) in a 96-well microplate overnight before spotting onto agar plates.
# P. acnes = experiment: MBC test of propionic acid against P. acnes; assay type: cell-based, Propionibacterium acnes
# Description: as §1
# E. coli [4] = experiment: Radial diffusion assay against E. coli; assay type: cell-based, Escherichia coli
# Description: A radial diffusion assay (RDA) was performed as follows. Briefly, microorganisms in the mid-log phase were centrifuged at 12,000×g for 10 min, washed with PBS, and dispersed (10^5 cfu/ml) in agar consisting of 1% (w/v) agarose (Sigma) and 3% (w/v) culture medium in PBS at 42° C. Then, the agar was poured into Petri dishes and solidified. Wells (diameter 3 mm and volume 30 μl) were created by poking a pipette tip into the semi-solidified agar. Propionic acid was serially diluted in PBS to concentrations ranging from 5 to 2,000 mM, and 30 μl aliquots were added to the wells; PBS served as the control. After 3 h of incubation, a 10 ml overlay gel composed of 3% culture medium and 1% agarose was poured onto the plates, where after the plates were incubated overnight and examined for zones of growth inhibition.
smiles,measurement,setting,value
CCC(=O)O [propionic acid],sizes of USA300-infected skin lesions,"USA300 [1]; topical 100 mM propionic acid 10 min before USA300 (2×10^6 CFU), vs PBS",considerably decreased; also recorded: significantly reduced
same,bacterial numbers in USA300-infected lesions,"USA300 [1]; topical 100 mM propionic acid, three days after bacterial application (FIG. 10F)",6.9±0.7×10^7 CFU
same,bacterial numbers in USA300-infected lesions,"USA300 [1]; topical 100 mM propionic acid, three days after bacterial application (FIG. 11F)",1.4±1.4×10^7 CFU/g
same,histological observation (H&E) of inflammatory response in wounds,"USA300 [1]; topical 100 mM propionic acid, vs PBS-treated wounds",less pronounced inflammatory response; also recorded: attenuated inflammatory response
same,USA300 colonization / growth in the skin lesions,USA300 [1]; topical 100 mM propionic acid,considerably decreased
same,USA300 colonization / growth in the skin lesions,"USA300 [1]; topical 100 mM propionic acid, listed as Propionic acid",significantly decreased
same,intracellular pH of USA300,USA300 [2],considerably lowered
same,concentration that completely killed E. coli,E. coli [3],≥ 50 mM
same,concentration that effectively suppressed the growth of E. coli,E. coli [3],greater than 10 mM
same,concentration at which growth inhibition of P. acnes was detectable,"P. acnes; MBC tests, 5 to 2,000 mM tested",greater than 1000 mM
same,growth of P. acnes,P. acnes; propionic acid 25 mM,did not affect the growth
same,growth of P. acnes,"P. acnes; propionic acid between 5 and 500 mM, MBC tests",did not affect the growth
same,"minimum effective concentration for growth inhibition zones, E. coli",E. coli [4],10 mM
